{"source": "paper PMC4801399", "about": "“Impact of a CXCL12/CXCR4 Antagonist in Bleomycin (BLM) Induced Pulmonary Fibrosis and Carbon Tetrachloride (CCl4) Induced Hepatic Fibrosis in Mice” (PLoS ONE, 2016)", "key": {"[1]": {"test_system": "leukocyte mobilization (blood cell counts)", "assay": "Hematology measurements after IP administration (leukocyte mobilization)", "assay_type": "in vivo, C57BL/6 mice", "settings": "IP 400 μg/mouse", "method": "(§1) At each endpoint, animals were euthanized with CO2 and blood collected via cardiac puncture. An aliquot was set aside at room temperature for hematology measurements with remaining blood processed for plasma for drug concentration determination. Lungs and livers were also collected and immediately frozen on dry ice and stored at -70°C until determination of drug concentration."}, "[2]": {"test_system": "leukocyte mobilization (blood cell counts)", "assay": "Hematology measurements after PO administration (leukocyte mobilization)", "assay_type": "in vivo, CD-1 mice", "method": "as §1, with “mice” for “animals”, “Lungs” for “Lungs and livers”, “were” for “were also”"}, "[3]": {"assay": "AMD070 PK study via IP injection: plasma, lung and liver concentration", "assay_type": "in vivo, C57BL/6 mice", "settings": "IP 400 μg/mouse; for concentration at 6 h: six hours post administration; for Kp: C57BL/6, read-out: Tissue AUC/Plasma AUC", "method": "(§2) At each endpoint, animals were euthanized with CO2 and blood collected via cardiac puncture. An aliquot was set aside at room temperature for hematology measurements with remaining blood processed for plasma for drug concentration determination. Lungs and livers were also collected and immediately frozen on dry ice and stored at -70°C until determination of drug concentration. AMD070 concentrations in mouse plasma were determined using protein precipitation extraction followed by UPLC-MS/MS analysis. Briefly, 100 μL aliquots of plasma were transferred to individual wells of an Isolute PPT+ (Biotage) array plate containing 300 μL of 0.1% formic acid (FA) in acetonitrile (ACN). […] The sample residue was then reconstituted into 200 μL of 0.1/5/95 FA/ACN/H2O (v/v/v) and analyzed using reverse phase chromatography (gradient elution) combined with multiple reaction monitoring acquisition (MRM). The mobile phases consisted of 0.1% FA in H2O and 0.1% FA in ACN. AMD070 was extracted from lung and liver tissue by homogenization under basic conditions followed by liquid-liquid extraction in tert-butyl methyl ether (TBME) and ethyl acetate respectively. In summary, 50 mg of lung or liver tissue pieces were cut, weighed, and transferred to homogenization tubes. 25 μL of deionized water for lung and 10 μL for liver were added to each tube, followed by the addition of zirconium (Zr) homogenization beads. The samples were homogenized for approximately 20 seconds in the BeadBeater, followed by 1 minute of centrifugation at room temperature at 13,520 rcf. 200 μL of 1 N NaOH was then transferred to each tube, followed by a second homogenization/centrifugation cycle as described above. […] The dried residue was reconstituted into 0.1/5/95 TFA/ACN/H2O and analyzed using reverse phase chromatography (gradient elution) combined with MRM acquisition in positive electrospray mode (ES+). The mobile phases consisted of 0.1% TFA in H2O and 0.1% TFA in ACN."}, "[4]": {"test_system": "leukocyte mobilization (blood cell counts)", "assay": "Hematology measurements after SC administration", "assay_type": "in vivo, C57BL/6 mice", "settings": "SC 400 μg/mouse; data not shown", "method": "Non fasted C57BL/6 mice at 7 to 8 weeks of age from Harlan were sacrificed at 0.5, 1, 3, 24 and 48 hours (n = 3/time point) post administration of AMD070 (in 30 mM acetate buffer, pH 5) (400 μg/mouse). All preceding procedures were same as those for AMD070 PK studies via IP injections."}, "[5]": {"test_system": "CXCR4", "design": "method as in PMID 20297846", "settings": "cited from earlier work"}, "[6]": {"assay": "AMD070 PK study via PO: plasma and lung concentration", "assay_type": "in vivo, CD-1 mice", "method": "as §2, with “mice” for “animals”, “Lungs” for “Lungs and livers”, “were” for “were also”"}}, "note": "Where two headings read alike, the source gives them in different places.", "data": [{"smiles": "NCCCCN(Cc1nc2ccccc2[nH]1)[C@H]1CCCc2cccnc21", "note": "[AMD070]", "values": [{"measurement": "RBC levels", "setting": "[1]", "result": "unaffected"}, {"measurement": "Tmax of WBC increase", "setting": "[1]", "result": 180, "unit": "min"}, {"measurement": "WBC counts", "setting": "[1]", "result": "significant but transient increase"}, {"measurement": "lymphocytes (WBC differential)", "setting": "[1]", "result": "increased"}, {"measurement": "neutrophils (WBC differential)", "setting": "[1]", "result": "increased"}, {"measurement": "platelet levels", "setting": "[1]", "result": "unaffected"}, {"measurement": "Tmax of WBC increase", "setting": "[2]; PO 200 μg/mouse", "result": 180, "unit": "min"}, {"measurement": "WBC counts", "setting": "[2]; PO 200 μg/mouse", "result": "significant, transient increase"}, {"measurement": "WBC counts", "setting": "[2]; PO 400 μg/mouse", "result": "increased and remained elevated for the full 24 hours"}, {"measurement": "eosinophils (WBC differential)", "setting": "[2]; PO 200 or 400 μg/mouse", "result": "no increases"}, {"measurement": "lymphocytes (WBC differential)", "setting": "[2]; PO 200 or 400 μg/mouse", "result": "increased"}, {"measurement": "monocytes (WBC differential)", "setting": "[2]; PO 200 or 400 μg/mouse", "result": "no increases"}, {"measurement": "neutrophils (WBC differential)", "setting": "[2]; PO 200 or 400 μg/mouse", "result": "no increases"}, {"measurement": "platelet counts", "setting": "[2]; PO 200 or 400 μg/mouse", "result": "did not change"}, {"measurement": "red blood cell (RBC) counts", "setting": "[2]; PO 200 or 400 μg/mouse", "result": "did not change"}, {"measurement": "Cmax", "setting": "[3]; C57BL/6, 400 ug, Liver", "result": 14300, "unit": "ng/g"}, {"measurement": "Tmax", "setting": "[3]; C57BL/6, 400 ug, Liver", "result": 30, "unit": "min"}, {"measurement": "Cmax", "setting": "[3]; C57BL/6, 400 ug, Lung", "result": 6140, "unit": "ng/g"}, {"measurement": "Tmax", "setting": "[3]; C57BL/6, 400 ug, Lung", "result": 30, "unit": "min"}, {"measurement": "Cmax", "setting": "[3]; C57BL/6, 400 ug, Plasma", "result": 770, "unit": "ng/mL"}, {"measurement": "Tmax", "setting": "[3]; C57BL/6, 400 ug, Plasma", "result": 30, "unit": "min"}, {"measurement": "AUC", "setting": "[3]; C57BL/6, 400 ug, Plasma, read-out: AUC (all time points)", "result": 1240, "unit": "ng·h/mL"}, {"measurement": "concentration at 6 h", "setting": "[3]; C57BL/6, liver, read-out: liver concentration", "result": 6470, "unit": "ng/g"}, {"measurement": "concentration at 6 h", "setting": "[3]; C57BL/6, lung, read-out: lung concentration", "result": 3740, "unit": "ng/g"}, {"measurement": "concentration at 6 h", "setting": "[3]; C57BL/6, plasma, read-out: plasma concentration", "result": 45, "unit": "ng/mL"}, {"measurement": "Kp", "setting": "[3]; Liver", "result": 90.7}, {"measurement": "Kp", "setting": "[3]; Lung", "result": 61.2}, {"measurement": "liver concentration (peak)", "setting": "[3]; 30 minutes post administration", "result": 14.3, "unit": "µg/g"}, {"measurement": "lung concentration (peak)", "setting": "[3]; 30 minutes post administration", "result": 6.14, "unit": "µg/g"}, {"measurement": "plasma concentration (peak)", "setting": "[3]; 30 minutes post administration", "result": 770, "unit": "ng/mL"}, {"measurement": "blood cell count changes compared with IP", "setting": "[4]", "result": "magnitude of these changes were lower"}, {"measurement": "protein binding adjusted effective concentration (EC90)", "setting": "[5]; 90% effectiveness", "result": 0.044, "unit": "µg/mL"}, {"measurement": "IC50", "setting": "[5]", "result": 13, "unit": "nM"}, {"measurement": "drug levels in the lungs", "setting": "[6]; PO 200 μg/animal", "result": "detectable but not quantifiable"}, {"measurement": "lung Cmax", "setting": "[6]; PO 400 μg/animal", "result": 267, "unit": "ng/g"}, {"measurement": "time of lung Cmax after PO", "setting": "[6]; PO 400 μg/animal", "result": 6, "unit": "h"}, {"measurement": "plasma concentrations of drug", "setting": "[6]; PO 200 or 400 μg/animal, data not shown", "result": "very low"}, {"measurement": "time lung concentration above IC50 and EC90", "setting": "[6]; of the 24 hours after dosing, PO 400 μg/animal, WinNonlin analysis", "result": "at least 21 hours"}]}]}
